Source: patent EP4644383A1 (Jiangsu Yahong Meditech Co., Ltd., priority 2022, dated 2024)
Like-named read-outs stand apart in the source and are kept apart here.

What was measured:
[1] = biological target: T1, FGFR3 (Homo sapiens, UniProt P22607); experiment: FGFR3 kinase activity inhibition assay (LanthaScreen TR-FRET); type: biochemical; details: for Selectivity (X) FGFR1/FGFR3: ratio of IC50 FGFR1/FGFR3, selectivity towards FGFR3
T1 construct: FGFR3's cytoplasmic domain [436-806 (terminal) amino acids]; purchased Carna 08-135
Method in brief: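 Read-out is TR-FRET, with the 520 nm/495 nm emission ratio normalised to DMSO (max) and enzyme-free (min) controls. Enzyme was the FGFR3 cytoplasmic domain, residues 436-806. EDTA (10 mM) stopped the reaction, followed by 60 min at 22 °C before reading.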

[2] = biological target: T2, FGFR1 (Homo sapiens, UniProt P11362); experiment: FGFR1 kinase activity inhibition assay (LanthaScreen TR-FRET); type: biochemical
T2 construct: cytoplasmic domain [398-822 (terminal) amino acids]; purchased Carna 08-133
Description: PV3552) and 10 mM EDTA were added to quench the kinase reaction, and incubated at 22°C for 60 minutes. • ⑤ The reaction was measured using a PerkinElmer EnVision multimode plate reader through TR-FRET dual wavelength detection. • 1. The RFU values were copied from the Envision program. • 2. The ratio of RFU 520nm/RFU 495nm was calculated. • 3. The value of the ratio was converted to a percentage inhibition value. % Inhibition = (max-data)/(max-min) × 100 [formula] "Min" represents the ratio of the control without enzyme, "max" represents the ratio of the DMSO control, and "data" represents the ratio of the compounds in wells with different concentrations. […] "Top" refers to the maximum response, "Bottom" refers to the minimum response, and "HillSlope" refers to the slope of the curve.

[3] = FGFR3 kinase, TR-FRET, read-out: IC50 (nM) FGFR3
[4] = FGFR1 kinase, TR-FRET, read-out: IC50 (nM) FGFR1

T2 sequence (P11362 398-822): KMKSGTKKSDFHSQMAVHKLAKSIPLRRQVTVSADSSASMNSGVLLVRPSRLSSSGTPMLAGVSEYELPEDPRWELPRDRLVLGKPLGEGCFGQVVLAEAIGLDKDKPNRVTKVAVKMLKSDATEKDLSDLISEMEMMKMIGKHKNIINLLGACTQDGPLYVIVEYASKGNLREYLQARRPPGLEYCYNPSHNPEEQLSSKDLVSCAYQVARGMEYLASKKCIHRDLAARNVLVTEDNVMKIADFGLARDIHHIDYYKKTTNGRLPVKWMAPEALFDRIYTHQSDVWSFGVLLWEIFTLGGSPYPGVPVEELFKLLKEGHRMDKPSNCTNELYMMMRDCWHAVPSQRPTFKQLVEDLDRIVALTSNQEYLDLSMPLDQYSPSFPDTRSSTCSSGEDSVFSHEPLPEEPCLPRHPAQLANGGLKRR
T1 sequence (P22607 436-806): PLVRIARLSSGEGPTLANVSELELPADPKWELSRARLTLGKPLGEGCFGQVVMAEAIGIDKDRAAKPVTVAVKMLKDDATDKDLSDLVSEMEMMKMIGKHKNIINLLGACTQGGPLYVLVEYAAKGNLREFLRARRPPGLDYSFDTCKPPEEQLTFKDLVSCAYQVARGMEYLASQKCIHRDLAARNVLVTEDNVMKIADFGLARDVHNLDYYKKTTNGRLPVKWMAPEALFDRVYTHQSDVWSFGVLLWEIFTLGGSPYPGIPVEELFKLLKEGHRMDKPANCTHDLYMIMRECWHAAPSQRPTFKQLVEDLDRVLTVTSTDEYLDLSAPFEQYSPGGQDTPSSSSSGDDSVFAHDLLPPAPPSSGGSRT

| Compound | IC50 [1, 3] [nM] | Selectivity (X) FGFR1/FGFR3 [1] | IC50 [2, 4] [nM] | IC50 [1] [nM] | IC50 [2] [nM] |
| --- | --- | --- | --- | --- | --- |
| CC(Oc1ccc2[nH]nc(-c3cnn(C4CN(C(=O)C5(N)CC5)C4)c3)c2c1)c1cccc2nccnc12 (stereo not drawn) [Example 205, (1-aminocyclopropy 1)(3-(4-(5-(1-(quinoxalin-5-yl)ethoxy)-1H-indazol-3-yl)-1H-pyrazol-1-yl)azetidin-1-yl)methanone] | < 1 | B (B represents 20 ≤ multiple X<50) | 1 to 10 |  |  |
| CC(=O)N1CCN(CCn2cc(-c3n[nH]c4ccc(O[C@H](C)c5c(Cl)cncc5Cl)nc34)cn2)CC1 [Example 57, (R)-1-(4-(2-(4-(5-(1-(3,5-dichloropyridin-4-yl)ethoxy)-1H-pyrazolo[4,3-b]pyridin-3-yl)-1H-pyrazol-1-yl)ethyl)piperazin-1-yl)ethan-1-one] | < 1 | A (A represents 1 ≤ multiple X<20) | 1 to 10 |  |  |
| CC(=O)N(C)C1CC(n2cc(-c3n[nH]c4ccc(OC(C)c5cccc6nccnc56)cc34)cn2)C1 (stereo not drawn) [Example 199, N-methyl-N-(3-(4-(5-(1-(quinoxalin-5-yl)ethoxy)-1H-indazol-3-yl)-1H-pyrazol-1-yl)cyclobutyl)acet amide] | < 1 | A (A represents 1 ≤ multiple X<20) | 10 to 100 |  |  |
| CC(Oc1ccc2[nH]nc(-c3cnn(C4CN(C(=O)C5CC5)C4)c3)c2c1)c1cccc2nccnc12 (stereo not drawn) [Example 219, cyclopropyl(3-(4-(5-(1-(quinoxalin-5-yl)ethoxy)-1H-indazol-3-yl)-1H-pyrazol-1-yl)azetidin-1-yl)methanone] | < 1 | A (A represents 1 ≤ multiple X<20) | 10 to 100 |  |  |
| C[C@@H](Oc1ccc2[nH]nc(-c3cnn(CCN4CCN(C)CC4)c3)c2n1)c1c(Cl)cncc1Cl [Example 53, (R)-5-(1-(3,5-dichloropyridin-4-yl)ethoxy)-3-(1-(2-(4-methylpiperazin-1-yl)ethyl)-1H-pyrazol-4-yl)-1H-pyrazolo[4,3-b]pyridine] | < 1 | A (A represents 1 ≤ multiple X<20) | 1 to 10 |  |  |
| CC(Oc1ccc2[nH]nc(-c3cnn(C4CC(S(C)(=N)=O)C4)c3)c2c1)c1cccc2nccnc12 (stereo not drawn) [Example 202, imino(methyl)(3-(4-(5-(1-(quinoxalin-5-yl)ethoxy)-1H-indazol-3-yl)-1H-pyrazol-1-yl)cyclobutyl)-sulfanone] | < 1 | A (A represents 1 ≤ multiple X<20) | 1 to 10 |  |  |
| CC(Oc1ccc2[nH]nc(-c3cnn(C)c3)c2c1)c1nccc2ncccc12 (stereo not drawn) [Example 120, 5-(1-((3-(1-methyl-1H-pyrazol-4-yl)-1H-indazol-5-yl)oxy)ethyl)-1,6-naphthyridine] | 1 to 10 | B (B represents 20 ≤ multiple X<50) | > 100 |  |  |
| COc1cc(OC(C)c2cc(Cl)cc3nccnc23)cc2c(-c3cnn(C)c3)n[nH]c12 (stereo not drawn) [Example 226] | 1 to 10 | B (B represents 20 ≤ multiple X<50) | > 100 |  |  |
| CC(Oc1ccc2[nH]nc(-c3cnn(C4CC(N(C)C(=O)C(C)(C)N)C4)c3)c2c1)c1cccc2nccnc12 (stereo not drawn) [Example 196, 2-amino-N,2-dimethyl-N-(3-(4-(5-(1-(quinoxalin-5-yl)ethoxy)-1H-indazol-3-yl)-1H-pyrazol-1-yl)cyclobutyl)propanamide] | < 1 | B (B represents 20 ≤ multiple X<50) | 10 to 100 |  |  |
| CC(Oc1ccc2[nH]nc(-c3cnn(C)c3)c2c1)c1ccnc2ccccc12 (stereo not drawn) [Example 87, 4-(1-((3-(1-methyl-1H-pyrazol-4-yl)-1H-indazol-5-yl)oxy)ethyl)quinoline] | 10 to 100 | B (B represents 20 ≤ multiple X<50) | > 100 |  |  |
| CNCC(=O)N1CC(n2cc(-c3n[nH]c4ccc(OC(C)c5cccc6nccnc56)cc34)cn2)C1 (stereo not drawn) [Example 193, 2-(methylamino)-1-(3-(4-(5-(1-(quinoxalin-5-yl)ethoxy)-1H-indazol-3-yl)-1H-pyrazol-1-yl)azetidin-1-yl)ethan-1-one] | < 1 | A (A represents 1 ≤ multiple X<20) | 1 to 10 |  |  |
| C[C@@H](Oc1cc(F)c2[nH]nc(-c3cnn(CCN4CCN(C)CC4)c3)c2c1)c1c(Cl)cncc1Cl [Example 22, (R)-5-(1-(3,5-dichloropyridin-4-yl)ethoxy)-7-fluoro-3-(1-(2-(4-methylpiperazin-1-yl)ethyl)-1H-pyrazol-4-yl)-1H-indazole] | 1 to 10 | A (A represents 1 ≤ multiple X<20) | 10 to 100 |  |  |
| CC(Oc1ccc2[nH]nc(-c3cnn(C4CN(C(=O)C(C)(C)N)C4)c3)c2c1)c1c(C(F)F)ccc2ncccc12 (stereo not drawn) [Example 208, 2-amino-1-(3-(4-(5-(1-(6-(difluoromethyl)quinoline-5-yl)ethoxy)-1H-indazol-3-yl)-1H-pyrazol-1-yl)azetidin-1-yl)-2-methylpropan-1-one] | < 1 | B (B represents 20 ≤ multiple X<50) | 10 to 100 |  |  |
| COCCOCCn1cc(-c2n[nH]c3c(F)cc(O[C@H](C)c4c(Cl)cncc4Cl)cc23)cn1 [Example 21] |  | A (A represents 1 ≤ multiple X<20) |  | 10 to 100 | > 100 |
| 7-methyl-5-(1-((3-(1-methyl-1H-pyrazol-4-yl)-1H-pyrazino[4,3-b]pyridin-5-yl)oxy)ethyl)pyridi no[3,4-b]pyrazine [Example 204] | < 1 | A (A represents 1 ≤ multiple X<20) | 1 to 10 |  |  |
| CC(Oc1ccc2[nH]nc(-c3cnn(C)c3)c2c1)c1nc(C2CC2)cc2nccnc12 (stereo not drawn) [Example 230, 7-cyclopropyl-5-(1-((3-(1-methyl-1H-pyrazol-4-yl)-1H-indazol-5-yl)oxy)ethyl)pyri dino[3,4-b]pyrazine] | < 1 | A (A represents 1 ≤ multiple X<20) | 1 to 10 |  |  |
| COc1cc(C(C)Oc2ccc3[nH]nc(-c4cnn(C)c4)c3c2)c2cccnc2c1 (stereo not drawn) [Example 148, 7-methoxy-5-(1-((3-(1-methyl-1H-pyrazol-4-yl)-1H-indazol-5-yl)oxy)ethyl)qu inoline] | 1 to 10 | C (C represents 50 ≤ multiple X<100) | > 100 |  |  |
| CC(C)c1ccc2nccnc2c1C(C)Oc1ccc2[nH]nc(-c3cnn(C)c3)c2c1 (stereo not drawn) [Example 129, 6-isopropyl-5-(1-((3-(1-methyl-1H-pyrazol-4-yl)-1H-indazol-5-yl)oxy)ethyl)quino xaline] | 1 to 10 | A (A represents 1 ≤ multiple X<20) | 1 to 10 |  |  |
| CC(Oc1ccc2[nH]nc(-c3cnn(C4CN(C(=O)C(C)(C)O)C4)c3)c2c1)c1cc(Cl)cc2ncccc12 (stereo not drawn) [Example 206, 1-(3-(4-(5-(1-(7-chloroquinolin-5-yl)ethoxy)-1H-indazol-3-yl)-1H-pyrazol-1-yl)azetidin-1-yl)-2-hydroxy-2-methylpropan-1-one] | 1 to 10 | C (C represents 50 ≤ multiple X<100) | 10 to 100 |  |  |
| CC(Oc1ccc2[nH]nc(-c3cnn(CC4CC(=O)N(C)C4)c3)c2c1)c1cccc2nccnc12 (stereo not drawn) [Example 200, 1-methyl-4-((4-(5-(1-(quinoxalin-5-yl)ethoxy)-1H-indazol-3-yl)-1H-pyrazol-1-yl)methyl)pyrrolidin-2-one] | 1 to 10 | B (B represents 20 ≤ multiple X<50) | 10 to 100 |  |  |
